Source: article PMC10221708, “Synthesis and Antimalarial Evaluation of Halogenated Analogues of Thiaplakortone A” (Marine Drugs, 2023)
Entries after “also recorded” stand apart in the source; their conditions may differ. Where two headings read alike, the source gives them in different places.

Assays:
[1] = test system: Plasmodium falciparum 3D7; test: In vitro antimalarial image-based asexual assay, 3D7; assay type: cell-based; conditions: for IC50: Plasmodium falciparum, 3D7, chloroquine-sensitive strain, 72 h, n = 4, read-out: Pf 3D7 IC50 ± SD; for SI for 3D7: SI = HEK293 IC50/parasite IC50
Method: (§1) Plasmodium falciparum 3D7 and Dd2 parasites were cultured in RPMI1640 (Life Technologies, Camarillo, CA, USA) supplemented with 2.5 mg/mL Albumax II, 5% AB human serum, 25 mM HEPES and 0.37 mM hypoxanthine. Ring-stage parasites were treated with compounds following two rounds of sorbitol synchronisation as previously described. Artesunate, pyrimethamine and puromycin were incorporated as controls. Following incubation of assay plates for 72 h at 37 °C, and 5% CO2 and 5% O2, parasites were stained with 2-(4-amidinophenyl)-1H-indole-6-carboxamidine (DAPI) and imaged using an Opera QEHS confocal imaging system (PerkinElmer, Waltham, MA, USA). Images were analysed as previously described using Acapella spot detection software (PerkinElmer, Waltham, MA, USA).

[2] = test system: Plasmodium falciparum Dd2; test: In vitro antimalarial image-based asexual assay, Dd2; assay type: cell-based; conditions: for IC50: Plasmodium falciparum, DD2, 72 h, n = 4, read-out: Pf Dd2 IC50 ± SD; for SI for Dd2: SI = HEK293 IC50/parasite IC50
Method: as §1

HEK293 cells [3] = test: In vitro cytotoxicity assay (Alamar Blue); assay type: cell-based, human; conditions: for IC50: HEK293, 72 h, n = 2
Method: Human embryonic kidney cells (HEK293) were maintained in DMEM (Life Technologies, Camarillo, CA, USA) containing 10% FBS (Hyclone™ ThermoFisher, Melbourne, Australia). Cytotoxicity testing was undertaken as previously described. In brief, 5 μL of test compound was added/well of black/clear tissue culture treated 384-well plates containing 3000 adherent HEK293 cells/well in 45 μL and incubated 72 h at 37 °C in 5% CO2. After incubation, the supernatant was removed and replaced with 40 μL of 10% Alamar Blue per well. Plates were incubated for 5–6 h and measured for fluorescence at 530 nm excitation and 595 nm emission. The % inhibition was calculated using 0.4% DMSO (no inhibition) and 5 μM puromycin (100% inhibition) data. IC50 values were obtained by plotting % inhibition against log dose using GraphPad Prism v.6 (San Diego, CA, USA), nonlinear regression with a variable slope plot.

[4] = test system: Plasmodium falciparum Dd2; set-up: method as in PMID 24032556; conditions: cited from earlier work; for IC50: drug-resistant strain, read-out: IC50 Pf (Dd2)
[5] = test system: Plasmodium falciparum 3D7; set-up: method as in PMID 24032556; conditions: cited from earlier work; for IC50: drug-sensitive strain, read-out: IC50 Pf (3D7)
HEK293 cells [6] = test system: HEK293 cells; set-up: method as in PMID 24032556; conditions: cited from earlier work
[7] = controls, drug-resistant strain
[8] = Homo sapiens, controls, read-out: HEK293 IC50 ± SD
[9] = chloroquine, pyrimethamine and mefloquine drug-resistant strain, mean ± SD
[10] = human embryonic kidney cells, mean ± SD
[11] = N-Boc group of compound 7 removed
[12] = bromine at C-2 replaced with iodine

Compound	SI for 3D7 [1]	SI for Dd2 [2]	IC50 ([1]; mean ± SD) [nM]	IC50 [2, 9] [nM]	IC50 (HEK293 cells [3]; [10]) [nM]	other results
C[C@H]1[C@H](OC(=O)CCC(=O)O)O[C@@H]2O[C@@]3(C)CC[C@H]4[C@H](C)CC[C@@H]1[C@@]24OO3 [Artesunate, reference compound]	>8163	>10,526				IC50 ([1]; controls): 0.49 ± 0.2 nM; IC50 [2, 7]: 0.38 ± 0.01 nM; IC50 (HEK293 cells [3]; [8]): > 4000 nM
NCCc1c[nH]c2c1C(=O)C1=C(NC=CS1(=O)=O)C2=O [Compound 1, thiaplakortone A]	22	150	61 ± 9	8 ± 1	1320 ± 92	selectivity index against Dd2 ([4]; HEK293 vs Dd2): 591; IC50 [4]: 6.6 nM; selectivity index against 3D7 ([5]; HEK293 vs 3D7): 76; IC50 [5]: 51 nM; cytotoxicity against HEK293 cells (HEK293 cells [6]): low cytotoxicity
CC(C)(C)OC(=O)NCCc1c[nH]c2c1C(=O)C1=C(NC=CS1(=O)=O)C2=O [Compound 2, Boc-protected thiaplakortone A]	24	64	227 ± 44	86 ± 12	5530 ± 21	
CC(C)(C)OC(=O)NCCc1c[nH]c2c1C(=O)C1=C(NC=C(Br)S1(=O)=O)C2=O [Compound 3]	>23	>137	3520 ± 350	583 ± 94	> 80000	
CC(C)(C)OC(=O)NCCc1c(Br)[nH]c2c1C(=O)C1=C(NC=C(Br)S1(=O)=O)C2=O [Compound 4]	>58	>39	1370 ± 117	2060 ± 192	> 80000	fold decrease in antimalarial activity against 3D7 upon removal of the Boc group ([1]; compound 4 after Boc removal): 1.2 fold
NCCc1c[nH]c2c1C(=O)C1=C(NC=C(Br)S1(=O)=O)C2=O [Compound 5]	>143	>1379	559 ± 145	58 ± 16	> 80000	cytotoxicity against HEK293 cells observed at 80 μM (HEK293 cells [3]; 80 μM (top screening concentration)): minimal cytotoxicity; also recorded: minimal toxicity
NCCc1c(Br)[nH]c2c1C(=O)C1=C(NC=C(Br)S1(=O)=O)C2=O [Compound 6]	>48	>164	1650 ± 194	487 ± 98	> 80000	
CC(C)(C)OC(=O)NCCc1c[nH]c2c1C(=O)C1=C(NC=C(I)S1(=O)=O)C2=O [Compound 7]	>14	>67	5620 ± 383	1190 ± 270	> 80000	
CC(C)(C)OC(=O)NCCc1c(I)[nH]c2c1C(=O)C1=C(NC=C(I)S1(=O)=O)C2=O [Compound 8]	>49	>121	1620 ± 154	659 ± 119	> 80000	
NCCc1c[nH]c2c1C(=O)C1=C(NC=C(I)S1(=O)=O)C2=O [Compound 9]	>36	>252	2220 ± 248	317 ± 8	> 80000	fold increase of antimalarial activity against 3D7 versus compound 7 [1, 11]: 2.5 fold; fold reduction of antimalarial activity against 3D7 versus compound 5 [1, 12]: 3.9 fold; fold increase of antimalarial activity against Dd2 versus compound 7 [2, 11]: 3.7 fold; fold reduction of antimalarial activity against Dd2 versus compound 5 [2, 12]: 5.5 fold
NCCc1c(I)[nH]c2c1C(=O)C1=C(NC=C(I)S1(=O)=O)C2=O [Compound 10]	>47	>110	1680 ± 316	725 ± 244	> 80000	
NCCc1c(C(F)(F)F)[nH]c2c1C(=O)C1=C(NC=C(C(F)(F)F)S1(=O)=O)C2=O [Compound 11]	>12	>18	6800 ± 2440	4550 ± 1150	> 80000	
COc1ccc(C[C@H](N)C(=O)N[C@H]2[C@@H](O)[C@H](n3cnc4c(N(C)C)ncnc43)O[C@@H]2CO)cc1 [Puromycin, reference compound]	33	61				IC50 ([1]; controls): 31.9 ± 16.2 nM; IC50 [2, 7]: 17 ± 3.96 nM; IC50 (HEK293 cells [3]; [8]): 1040 ± 66 nM
CCc1nc(N)nc(N)c1-c1ccc(Cl)cc1 [Pyrimethamine, reference compound]	>10,666					IC50 ([1]; controls): 3.75 ± 0.3 nM; IC50 [2, 7]: > 40000 nM; IC50 (HEK293 cells [3]; [8]): > 40000 nM
NCCc1c[nH]c2c1C(=O)C1=C(NCCS1(=O)=O)C2=O [Thiaplakortone B]						IC50 [4]: 92 nM; IC50 [5]: 650 nM
CN[C@@H](Cc1c[nH]c2c1C(=O)C1=C(NC=CS1(=O)=O)C2=O)C(=O)O [Thiaplakortone C]						IC50 [4]: 170 nM; IC50 [5]: 310 nM
CN[C@@H](Cc1c[nH]c2c1C(=O)C1=C(C2=O)S(=O)(=O)C=CN1)C(=O)O [Thiaplakortone D]						IC50 [4]: 160 nM; IC50 [5]: 280 nM
